{
  "source": "patent US5221664A",
  "about": "“Composition and treatment with biologically active peptides and toxic cations” (Magainin Pharmaaceuticals Inc., priority 1991, dated 1993)",
  "key": {"[1]": {"system": "P. aeruginosa strain 27853", "experimental": "Approximately 1-5×10^5 colony forming units (CFUs) of P. aeruginosa strain 27853, dispersed in 100 μl of Trypticase soy broth (TSB), were added to each test well. […] B13-33 peptide is of the following structure:\nThe following peptide combinations were tested for Minimal Inhibitory Concentration (MIC) of the B13-33 peptide:\nThe following combinations were tested for the MIC of silver nitrate:\nApproximately 1-5×10^5 CFUs of P. aeruginosa strain 27853 dispersed in 100 μl of TSB were added to each test well. […]"}, "[2]": {"system": "P. aeruginosa strain 107 which was gentamicin resistant", "assay": "Minimum Inhibitory Concentration (MIC) in TSB, test wells", "format": "cell-based", "conditions": "for MIC: agent alone, gentamicin resistant P. aeruginosa strain 107; for MIC of the peptide: P. aeruginosa strain 107", "experimental": "Approximately 1-5×10^5 CFUs of P. aeruginosa strain 107 which was gentamicin resistant, dispersed in 100 μl of TSB were added to each test well. […] The following combinations of Magainin II, with or without silver nitrate, were tested for Minimum Inhibitory Concentration (MIC) of Magainin II: […]"}, "[3]": {"system": "clinical isolate of a methicillin resistant S. aureus (MSRA)", "format": "cell-based", "conditions": "agent alone", "experimental": "Approximately 1-5×10^5 CFUs of a clinical isolate of a methicillin resistant S. aureus (MSRA), dispersed in 100 μl of TSB were added to each test well. […] The MIC of each peptide alone, and of silver nitrate alone was determined. The MIC of each peptide when 5 μg/ml and/or 10 μg/ml of silver nitrate was added was determined as well."}, "[4]": {"conditions": "plus 3 μg/ml silver nitrate, P. aeruginosa strain 27853"}, "[5]": {"conditions": "agent alone, P. aeruginosa strain 27853"}},
  "note": "Several values for one entry are separate records, joined by “and”; a condition that tells them apart may be missing. Identical values can stand only once. Like-named read-outs stand apart in the source and are kept apart here. Ends that are not written are not given here.",
  "data": [
    {"compound": "GIGKFLHSAKKFGKAFVGEIMNS-NH2 [Magainin II]", "values": [
      {"measurement": "MIC of the peptide", "setting": "[1]; plus 1 μg/ml silver nitrate, P. aeruginosa strain 27853", "result": 32, "unit": "µg/mL"},
      {"measurement": "MIC of the peptide", "setting": "[1]; plus 2 μg/ml silver nitrate, P. aeruginosa strain 27853", "result": 16, "unit": "µg/mL"},
      {"measurement": "MIC of the peptide", "setting": "[1]; [4]", "result": 8, "unit": "µg/mL"},
      {"measurement": "MIC of the peptide", "setting": "[1]; plus 4 μg/ml silver nitrate, P. aeruginosa strain 27853", "result": "< 0.03", "unit": "µg/mL"},
      {"measurement": "MIC", "setting": "[2]", "result": 256, "unit": "µg/mL"},
      {"measurement": "MIC of the peptide", "setting": "[2]; plus 1 μg/ml silver nitrate", "result": 32, "unit": "µg/mL"},
      {"measurement": "MIC of the peptide", "setting": "[2]; plus 2 μg/ml silver nitrate", "result": 16, "unit": "µg/mL"},
      {"measurement": "MIC of the peptide", "setting": "[2]; plus 3 μg/ml silver nitrate", "result": 16, "unit": "µg/mL"},
      {"measurement": "MIC of the peptide", "setting": "[2]; plus 4 μg/ml silver nitrate", "result": 4, "unit": "µg/mL"},
      {"measurement": "MIC of the peptide", "setting": "[2]; plus 5 μg/ml silver nitrate", "result": "< 0.03", "unit": "µg/mL"}
    ]},
    {"compound": "GIGKFLKKAKKFGKAFVKIMKK [B13-33 peptide]", "values": [
      {"measurement": "MIC", "setting": "[1]; strain 27853", "result": "4 to 16", "unit": "µg/mL"}
    ]},
    {"compound": "O=[N+]([O-])[O-].[Ag+]", "note": "[Silver nitrate, silver nitrate, reference compound]", "values": [
      {"measurement": "MIC", "setting": "[3]", "result": 16, "unit": "µg/mL"},
      {"measurement": "MIC", "setting": "[1]; [5]", "result": "4 to 8 µg/mL and 8 µg/mL"},
      {"measurement": "MIC", "setting": "[1]; agent alone, P. aeruginosa strain 27853, listed as silver nitrate", "result": "2 to 8", "unit": "µg/mL"},
      {"measurement": "MIC of silver nitrate", "setting": "[1]; plus 1.6 μg/ml B13-33 peptide, P. aeruginosa strain 27853", "result": "2 to 8", "unit": "µg/mL"},
      {"measurement": "MIC of silver nitrate", "setting": "[1]; plus 5 μg/ml B13-33 peptide, P. aeruginosa strain 27853", "result": "< 0.25", "unit": "µg/mL"},
      {"measurement": "MIC of silver nitrate", "setting": "[1]; plus 5 μg/ml B13-33 peptide, P. aeruginosa strain 27853, listed as silver nitrate", "result": "less than 0.25 μg/ml"},
      {"measurement": "MIC", "setting": "[2]", "result": 8, "unit": "µg/mL"}
    ]},
    {"compound": "KWKLFKKIEKVGQRVRDAVISAGPAVATVAQATALAK [Cecropin A-D]", "values": [
      {"measurement": "MIC", "setting": "[1]; [5]", "result": 16, "unit": "µg/mL"},
      {"measurement": "MIC of the peptide", "setting": "[1]; [4]", "result": "< 0.25", "unit": "µg/mL"}
    ]}
  ]
}
